Laboratory results published in PMC7504721, “Targeting the Initiator Protease of the Classical Pathway of Complement Using Fragment-Based Drug Discovery” (Molecules, 2020).

How the values were obtained:
[1] = tested on: C1r; parameters: method as in PMID 10206542; details: cited from earlier work
[2] = target: T1, C1r proenzyme (Homo sapiens, UniProt P00736); test: C1r proenzyme activation (autoactivation) assay with Z-Gly-Arg-sBzl substrate; format: biochemical; details: 10 mM compound, 37 °C, 1 h
T1 construct: purchased Complement Technology (CompTech)
T1 sequence (P00736 18-705): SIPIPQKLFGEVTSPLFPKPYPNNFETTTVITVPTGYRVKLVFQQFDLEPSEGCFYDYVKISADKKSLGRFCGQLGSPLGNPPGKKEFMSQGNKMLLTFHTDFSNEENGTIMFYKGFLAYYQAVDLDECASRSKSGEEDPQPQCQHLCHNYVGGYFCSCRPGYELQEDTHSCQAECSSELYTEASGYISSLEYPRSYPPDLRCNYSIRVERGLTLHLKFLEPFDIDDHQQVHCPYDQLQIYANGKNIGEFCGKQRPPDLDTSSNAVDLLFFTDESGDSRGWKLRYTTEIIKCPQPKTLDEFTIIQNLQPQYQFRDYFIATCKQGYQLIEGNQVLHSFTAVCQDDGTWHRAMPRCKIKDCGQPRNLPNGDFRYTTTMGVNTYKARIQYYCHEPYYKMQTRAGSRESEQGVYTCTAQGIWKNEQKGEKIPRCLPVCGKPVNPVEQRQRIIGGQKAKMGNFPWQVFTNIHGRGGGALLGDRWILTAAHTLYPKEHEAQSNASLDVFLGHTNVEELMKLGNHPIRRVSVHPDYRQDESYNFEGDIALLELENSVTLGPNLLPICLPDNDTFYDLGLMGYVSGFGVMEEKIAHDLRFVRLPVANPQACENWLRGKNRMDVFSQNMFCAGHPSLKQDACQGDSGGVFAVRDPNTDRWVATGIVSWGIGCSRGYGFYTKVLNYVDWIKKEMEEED
Experimental: Figure 6 CMP-1696 structure activity relationship. (A) CMP-1696 was redocked onto C1r-CCP2-SP (PDB: 1MD8, grey surface representation) and the top nine scored poses are shown. All CMP-1696 poses dock into the S1 subsite (cyan) near the catalytic triad (blue). (B) C1r autoactivation assay. C1r proenzyme undergoes time-dependent autoactivation at 37 °C. Autoactivation was measured using a synthetic substrate for C1r enzyme. The reaction progress of vehicle control (dashed line) or in the presence of 10 mM CMP-1696 (solid line) was monitored for 1 h. (C) Molecular dynamics (MD) simulations of CMP-1696/C1r-CCP2-SP. Root mean square deviation (RMSD) in nm for each of the CMP-1696 poses measured over the 10 ns molecular dynamics simulation. (D) MM/PBSA energy calculations for each pose in the 10 ns MD simulations indicate that pose 1 is the most energetically favorable. […]
Individual stock solutions of 1 mM of Z-Gly-Arg-sBzl (MP Biomedicals, Irvine, CA, USA) and 5,5′-Dithiobis-(2-nitrobenzoic acid) (DTNB) (Sigma-Aldrich, St. Louis, MO, USA) were made by dissolving powder in DMSO to give 10 mM stocks of each compound, which were then diluted to 1 mM in assay buffer (20 mM HEPES pH 7.3, 140 mM NaCl, 0.005% (v/v) Tween-20, 2 mM CaCl2). […] Plates were read at 450 nm using an EnSight multimode plate reader (Perkin-Elmer, Waltham, MA, USA) and the reaction progress was tracked for 1 h.

Row | SMILES | inhibition of C1r [1] | inhibition of autocatalysis of C1r proenzyme [2]
1 | N=C(N)c1ccc2cc(OC(=O)c3ccc(N=C(N)N)cc3)ccc2c1 [Futhan, reference compound] | previously reported to inhibit C1r | 
2 | COCc1nc(-c2ccc(OC3CNC3)cc2)no1 [CMP-1696] |  | directly inhibited
